What all share (format): cell-based
Test [1] addresses T1, human GIP receptor (hGIPR) (Homo sapiens, UniProt P48546).
T1 construct: expressed in transfected cells
T1 sequence (P48546 22-466): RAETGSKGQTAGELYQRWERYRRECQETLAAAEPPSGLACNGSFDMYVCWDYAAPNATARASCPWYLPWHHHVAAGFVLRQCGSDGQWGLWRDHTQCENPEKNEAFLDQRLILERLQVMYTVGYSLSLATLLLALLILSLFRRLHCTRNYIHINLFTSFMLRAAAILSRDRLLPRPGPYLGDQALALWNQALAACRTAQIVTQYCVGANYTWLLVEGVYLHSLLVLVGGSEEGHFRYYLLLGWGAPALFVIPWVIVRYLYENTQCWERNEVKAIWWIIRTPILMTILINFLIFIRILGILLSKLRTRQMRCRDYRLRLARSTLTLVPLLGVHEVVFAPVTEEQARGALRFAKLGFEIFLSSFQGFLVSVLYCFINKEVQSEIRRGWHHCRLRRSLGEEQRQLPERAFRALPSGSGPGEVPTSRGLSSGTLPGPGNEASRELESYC
The test is described as follows: GIP receptor assay, method B (CRE-luciferase reporter, BHK cells, 384-well).
Excerpt: Activation of the human GIP receptor leads to increased intra-cellular concentrations of cyclic AMP (cAMP) and the consequent transcription activation from promoters containing multiple copies of the cAMP response element (CRE). It is thus possible to measure GIP receptor activity using a CRE-luciferase reporter gene introduced into Baby Hamster Kidney (BHK) cells co-expressing the human GIP receptor.
Cells at about 80-90% confluency were washed once with PBS (Gibco 14190-094) and detached from the cell flasks with Versene (Gibco, 15040-066). After centrifugation, the cells were counted, resuspended and diluted to approximately 1.5-3.0×10^6 (1.5E+6 to 3.0E+6) cells/mL in Recovery Cell Culture Freezing Medium (Gibco, 12648-010) and stored at −180° C. in suitable aliquots until use.
(§1) The assay buffer consisted of DMEM without phenol red (Gibco, 11880-028) supplemented with 1× GlutaMAX (Gibco, 35050-038), 10 mM HEPES (Gibco, 15630-056), 1% (w/v) ovalbumin (Sigma, A5503) and 0.1% (v/v) Pluronic F-68 (Gibco, 24040-032) either with HSA or without HSA (Sigma, A9511).
Serial dilutions were transferred to a 384-well assay plate (PerkinElmer/Revvity, 6007688) and mixed with an equal volume (10 μL) of assay buffer without or with 3% HSA (Sigma, A-9511). Frozen stocks of hGIPR BHK Cre-Luc cells were thawed in a 37° C. water bath, washed once in PBS (Gibco 14190-094), diluted to 1.5×10^5 (1.5E+5) cells/mL in assay buffer (without HSA) and added (10 μL) to each well of the 384-well assay plate. After a short centrifugation, the assay plates were incubated for 3 hours at 37° C. in 5% CO2 and let to equilibrated at room temperature for 10 minutes before the addition of 30 μL steadylite Plus™ (PerkinElmer/Revvity, 6066759) per well. Plates were sealed and incubated at room temperature with gentle shaking for 30 minutes while protected from light. Luminescence was detected on a luminescence plate reader e.g. a Synergy 2 (BioTek).

Test [2] deals with T2, human amylin receptor (hAMYR3) (Homo sapiens, UniProt O60896+P30988).
T2 construct: host or cells: BHK cells (Hollex-1 line expressing hCTR(a) and CRE-Luc), further transfected with human RAMP3
Kind of test: Amylin receptor assay, method B (CRE-luciferase reporter, BHK cells). The method, then: To assess how the activation of the receptors is potentially influenced by the presence of human serum albumin (HSA), the in vitro assays were performed in the absence of HSA and presence of 1% (w/v) HSA.
It is thus possible to measure hAMYR3 activity using a CRE-luciferase reporter gene introduced into Baby Hamster Kidney (BHK) cells co-expressing the hAMYR3.
The cell line was further transfected with human receptor modifying protein 3 (RAMP3) using standard methods.
After centrifugation, the cell pellet was resuspended and diluted to approximately 2.5-4.0×10^6 (2.5E+6 to 4.0E+6) cells/mL in Recovery™ Cell Culture Freezing Medium (Gibco, 12648-010). Cells were aliquoted and stored at −180° C. until use.
The assay buffer consisted of DMEM without phenol red (Gibco, 11880-028) supplemented with 1× GlutaMAX (Gibco, 35050-038), 10 mM HEPES (Gibco, 15630-056) and 1% (w/v) ovalbumin (Sigma, A5503) either with or without 0.1% (v/v) Pluronic F-68 (Gibco, 24040-032) and either with or without HSA (Sigma, A9511).
To perform the assay, hAMYR3 BHK Cre-Luc cells were thawed, washed once in PBS (Gibco 14190-094) and seeded in 40 μL growth medium in a white 384-well culture plate (PerkinElmer/Revvity, 6007688) at a cell density of 4.0×10^3 (4.0E+3) cells/well the day before the experiment. The plate was incubated over night at 37° C. in 5% CO2. […] Serial dilutions were then mixed in a new 96-well plate with equal volume (1:1:1 ratio) of assay buffer and either assay buffer without or with 3% HSA (Sigma, A-9511). Twenty microliters of the solution mix were transferred to the cells which previously were washed once with PBS (Gibco 14190-094). After a short centrifugation, the assay plates were incubated for 3 hours at 37° C. in 5% CO2 and let to equilibrated at room temperature for 10 minutes before the addition of 30 μL steadylite Plus™ PerkinElmer/Revvity, 6066759) per well. Plates were sealed and incubated at room temperature with gentle shaking for 30 minutes while protected from light. Luminescence was detected on a luminescence plate reader e.g., a Synergy 2 (BioTek).

Test [3] has as its target T3, human GLP-1 receptor (hGLP-1R) (Homo sapiens, UniProt P43220).
T3 construct: expressed in transfected cells
Kind of test: GLP-1 receptor assay, method B (CRE-luciferase reporter, BHK cells, 384-well).
Description: Cells at approximately 80-90% confluence were washed once in PBS (Gibco 14190-094) and loosened from the cell flasks with Versene (Gibco, 15040-033). […] Cells were aliquoted and stored at −180° C. until use.
as §1
Serial dilutions were transferred to a 384-well assay plate (PerkinElmer/Revvity, 6007688) and mixed with an equal volume (10 μL) of assay buffer without or with 3% (w/v) HSA (Sigma, A-9511). Frozen stocks of hGLP-1R BHK Cre-Luc cells were thawed in a 37° C. water bath, washed once in PBS (Gibco 14190-094), diluted to 1.5×10^5 (1.5E+5) cells/mL in assay buffer (without HSA) and added (10 μL) to each well of the 384-well assay plate. After a short centrifugation, the assay plates were incubated for 3 hours at 37° C. in 5% CO2 and let to equilibrated at room temperature for 10 minutes before the addition of 30 μL steadylite Plus™ PerkinElmer/Revvity, 6066759) per well. Plates were sealed and incubated at room temperature with gentle shaking for 30 minutes while protected from light. Luminescence was detected on a luminescence plate reader e.g. a Synergy 2 (BioTek).

Setting [4] is: hGIPR Potency, 1% HSA, EC50, methods B, in the presence of 1% HSA.
Setting [5] is: method B, absence of HSA, read-out: hGIPR Potency, no HSA, EC50.
[6] abbreviates: hAMYR3 Potency, 1% HSA, EC50, methods B, in the presence of 1% HSA.
[7] abbreviates: method B, absence of HSA, read-out: hAMYR3 Potency, no HSA, EC50.
The mark [8] stands for this setting: hGLP-1R Potency, 1% HSA, EC50, methods B, in the presence of 1% HSA.
Setting [9] is: method B, absence of HSA, read-out: hGLP-1R Potency, no HSA, EC50.

Structures are written as SMILES. Like-named read-outs stand apart in the source and are kept apart here.

The text below walks through data of US20260174875A1 (Novo Nordisk A/S, priority 2023, published 2026).

T3 sequence (P43220 24-463): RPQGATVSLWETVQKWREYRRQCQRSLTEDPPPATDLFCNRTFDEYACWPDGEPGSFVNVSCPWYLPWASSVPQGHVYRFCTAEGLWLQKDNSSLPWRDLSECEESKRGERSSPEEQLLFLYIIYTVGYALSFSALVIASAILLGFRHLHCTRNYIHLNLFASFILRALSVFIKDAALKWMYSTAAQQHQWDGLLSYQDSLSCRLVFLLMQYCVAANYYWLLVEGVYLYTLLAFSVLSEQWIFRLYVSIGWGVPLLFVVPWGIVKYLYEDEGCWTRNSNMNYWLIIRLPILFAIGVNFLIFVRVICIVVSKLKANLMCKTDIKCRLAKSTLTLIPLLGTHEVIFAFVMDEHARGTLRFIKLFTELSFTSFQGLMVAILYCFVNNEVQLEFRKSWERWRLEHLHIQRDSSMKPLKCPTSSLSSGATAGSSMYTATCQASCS
T2 sequence (P30988 25-474): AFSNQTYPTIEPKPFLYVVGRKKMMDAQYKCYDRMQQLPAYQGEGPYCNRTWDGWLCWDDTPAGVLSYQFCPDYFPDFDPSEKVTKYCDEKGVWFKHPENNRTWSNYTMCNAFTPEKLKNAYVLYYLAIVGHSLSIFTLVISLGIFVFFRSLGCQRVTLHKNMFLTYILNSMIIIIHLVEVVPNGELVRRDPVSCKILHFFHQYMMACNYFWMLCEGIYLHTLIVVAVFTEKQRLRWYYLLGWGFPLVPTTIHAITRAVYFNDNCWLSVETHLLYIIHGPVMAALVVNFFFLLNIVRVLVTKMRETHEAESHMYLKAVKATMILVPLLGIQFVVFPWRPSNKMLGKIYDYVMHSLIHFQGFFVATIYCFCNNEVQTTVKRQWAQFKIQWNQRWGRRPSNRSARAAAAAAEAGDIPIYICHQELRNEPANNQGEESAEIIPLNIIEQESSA
T2 sequence (O60896 24-148): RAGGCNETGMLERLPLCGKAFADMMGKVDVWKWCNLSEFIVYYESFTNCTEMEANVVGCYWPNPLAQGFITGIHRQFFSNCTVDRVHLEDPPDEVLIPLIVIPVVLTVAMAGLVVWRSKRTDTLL

`CC[C@H](C)[C@H](NC(=O)[C@H](CCC(=O)O)NC(=O)[C@H](CCC(=O)O)NC(=O)[C@H](CC(C)C)NC(=O)[C@H](CC(C)C)NC(=O)[C@@H](NC(=O)[C@H](CO)NC(=O)[C@H](Cc1ccc(O)cc1)NC(=O)[C@H](CC(=O)O)NC(=O)[C@H](CO)NC(=O)[C@@H](NC(=O)[C@H](Cc1ccccc1)NC(=O)[C@@H](NC(=O)CNC(=O)[C@H](CCC(=O)O)NC(=O)C(C)(C)NC(=O)[C@@H](N)Cc1ccc(O)cc1)[C@@H](C)O)[C@@H](C)O)[C@@H](C)CC)C(=O)N[C@@H](C)C(=O)N[C@@H](C)C(=O)N[C@@H](CCCNC(=N)N)C(=O)N[C@@H](CCC(=O)O)C(=O)N[C@@H](Cc1ccccc1)C(=O)N[C@H](C(=O)N[C@@H](CCC(=O)O)C(=O)N[C@@H](Cc1c[nH]c2ccccc12)C(=O)N[C@@H](CC(C)C)C(=O)N[C@@H](CC(C)C)C(=O)N[C@@H](C)C(=O)NCC(=O)NCC(=O)N1CCC[C@H]1C(=O)N[C@@H](CO)C(=O)N[C@@H](CO)C(=O)NCC(=O)N[C@@H](C)C(=O)NCC(=O)N[C@@H](C)C(=O)N[C@@H](CO)C(=O)N[C@@H](Cc1c[nH]cn1)C(=O)N[C@@H](CC(C)C)C(=O)N[C@@H](CO)C(=O)N[C@H](C(=O)N[C@@H](C)C(=O)N[C@@H](CCC(N)=O)C(=O)N[C@H](C(=O)N[C@@H](CCC(N)=O)C(=O)N[C@@H](CCCNC(=N)N)C(=O)N[C@@H](CC(C)C)C(=O)N[C@@H](CO)C(=O)N[C@@H](C)C(=O)N[C@@H](CCC(=O)O)C(=O)N[C@@H](CC(C)C)C(=O)N[C@@H](Cc1c[nH]cn1)C(=O)N[C@@H](CCCCNC(=O)COCCOCCNC(=O)COCCOCCNC(=O)CC[C@H](NC(=O)CCCCCCCCCCCCCCCCCCC(=O)O)C(=O)O)C(=O)N[C@@H](CC(C)C)C(=O)N[C@@H](C)C(=O)N[C@H](C(=O)N[C@@H](CCC(=O)O)C(=O)N1CCC[C@H]1C(=O)N[C@@H](CCCNC(=N)N)C(=O)N[C@H](C(=O)N[C@@H](CCC(=O)O)C(=O)N[C@H](C(=O)NCC(=O)N[C@@H](CO)C(=O)NCC(=O)N[C@@H](CO)C(=O)N1CCC[C@H]1C(N)=O)[C@@H](C)O)[C@@H](C)O)[C@@H](C)O)[C@@H](C)O)[C@@H](C)O)[C@@H](C)CC` [Compound 179]: the EC50 was determined as 0.0255 nM in test [1] (setting [4]); 0.00436 nM in test [1] (setting [5]); 1.35 nM in test [2] (setting [6]); 0.01 nM in test [2] (setting [7]); 0.17 nM in test [3] (setting [8]); 0.0233 nM in test [3] (setting [9]).
In the case of `CC[C@H](C)[C@H](NC(=O)[C@H](CCC(=O)O)NC(=O)[C@H](CCC(=O)O)NC(=O)[C@H](CC(C)C)NC(=O)[C@H](CC(C)C)NC(=O)[C@@H](NC(=O)[C@H](CO)NC(=O)[C@H](Cc1ccc(O)cc1)NC(=O)[C@H](CC(=O)O)NC(=O)[C@H](CO)NC(=O)[C@@H](NC(=O)[C@H](Cc1ccccc1)NC(=O)[C@@H](NC(=O)CNC(=O)[C@H](CCC(=O)O)NC(=O)C(C)(C)NC(=O)[C@@H](N)Cc1ccc(O)cc1)[C@@H](C)O)[C@@H](C)O)[C@@H](C)CC)C(=O)N[C@@H](C)C(=O)N[C@@H](C)C(=O)N[C@@H](CCCNC(=N)N)C(=O)N[C@@H](CCC(=O)O)C(=O)N[C@@H](Cc1ccccc1)C(=O)N[C@H](C(=O)N[C@@H](CCC(=O)O)C(=O)N[C@@H](Cc1c[nH]c2ccccc12)C(=O)N[C@@H](CC(C)C)C(=O)N[C@@H](CC(C)C)C(=O)N[C@@H](C)C(=O)NCC(=O)NCC(=O)N1CCC[C@H]1C(=O)N[C@@H](CO)C(=O)N[C@@H](CO)C(=O)NCC(=O)N[C@@H](C)C(=O)NCC(=O)N[C@@H](CCC(N)=O)C(=O)N[C@@H](C)C(=O)N1CCC[C@H]1C(=O)N[C@@H](CCC(=O)O)C(=O)N[C@@H](CCC(N)=O)C(=O)N[C@@H](C)C(=O)N1CCC[C@H]1C(=O)NCC(=O)N[C@@H](C)C(=O)N[C@@H](CO)C(=O)N[C@@H](Cc1c[nH]cn1)C(=O)N[C@@H](CC(C)C)C(=O)N[C@@H](CO)C(=O)N[C@H](C(=O)N[C@@H](C)C(=O)N[C@@H](CCC(N)=O)C(=O)N[C@H](C(=O)N[C@@H](CCC(N)=O)C(=O)N[C@@H](CCCNC(=N)N)C(=O)N[C@@H](CC(C)C)C(=O)N[C@@H](CO)C(=O)N[C@@H](C)C(=O)N[C@@H](CCC(=O)O)C(=O)N[C@@H](CC(C)C)C(=O)N[C@@H](Cc1c[nH]cn1)C(=O)N[C@@H](CCCCNC(=O)COCCOCCNC(=O)COCCOCCNC(=O)CC[C@H](NC(=O)CCCCCCCCCCCCCCCCCCC(=O)O)C(=O)O)C(=O)N[C@@H](CC(C)C)C(=O)N[C@@H](C)C(=O)N[C@H](C(=O)N[C@@H](CC(C)C)C(=O)N1CCC[C@H]1C(=O)N[C@@H](CCCNC(=N)N)C(=O)N[C@H](C(=O)N[C@@H](CCC(=O)O)C(=O)N[C@H](C(=O)NCC(=O)N[C@@H](CO)C(=O)NCC(=O)N[C@@H](CO)C(=O)N1CCC[C@H]1C(N)=O)[C@@H](C)O)[C@@H](C)O)[C@@H](C)O)[C@@H](C)O)[C@@H](C)O)[C@@H](C)CC` [Compound 151], the EC50 in test [1] (setting [4]) was determined as 0.0139 nM; in test [1] (setting [5]), 0.00399 nM; in test [2] (setting [6]) it was 0.95 nM; in test [2] (setting [7]), 0.00967 nM; in test [3] (setting [8]) it was 0.0726 nM; in test [3] (setting [9]), 0.0277 nM.
On to `CC[C@H](C)[C@H](NC(=O)[C@H](CCC(=O)O)NC(=O)[C@H](CCC(=O)O)NC(=O)[C@H](CC(C)C)NC(=O)[C@H](CC(C)C)NC(=O)[C@@H](NC(=O)[C@H](CO)NC(=O)[C@H](Cc1ccc(O)cc1)NC(=O)[C@H](CC(=O)O)NC(=O)[C@H](CO)NC(=O)[C@@H](NC(=O)[C@H](Cc1ccccc1)NC(=O)[C@@H](NC(=O)CNC(=O)[C@H](CCC(=O)O)NC(=O)C(C)(C)NC(=O)[C@@H](N)Cc1ccc(O)cc1)[C@@H](C)O)[C@@H](C)O)[C@@H](C)CC)C(=O)N[C@@H](C)C(=O)N[C@@H](C)C(=O)N[C@@H](CCCNC(=N)N)C(=O)N[C@@H](CCC(=O)O)C(=O)N[C@@H](Cc1ccccc1)C(=O)N[C@H](C(=O)N[C@@H](CCC(=O)O)C(=O)N[C@@H](Cc1c[nH]c2ccccc12)C(=O)N[C@@H](CC(C)C)C(=O)N[C@@H](CC(C)C)C(=O)N[C@@H](C)C(=O)NCC(=O)NCC(=O)N1CCC[C@H]1C(=O)N[C@@H](CO)C(=O)N[C@@H](CO)C(=O)NCC(=O)N[C@@H](C)C(=O)NCC(=O)N[C@@H](CCC(=O)O)C(=O)N[C@@H](C)C(=O)N1CCC[C@H]1C(=O)NCC(=O)N[C@@H](CCC(=O)O)C(=O)N[C@@H](C)C(=O)N1CCC[C@H]1C(=O)NCC(=O)N[C@@H](C)C(=O)N[C@@H](CO)C(=O)N[C@@H](Cc1c[nH]cn1)C(=O)N[C@@H](CC(C)C)C(=O)N[C@@H](CO)C(=O)N[C@H](C(=O)N[C@@H](C)C(=O)N[C@@H](CCC(N)=O)C(=O)N[C@H](C(=O)N[C@@H](CCC(N)=O)C(=O)N[C@@H](CCCNC(=N)N)C(=O)N[C@@H](CC(C)C)C(=O)N[C@@H](CO)C(=O)N[C@@H](C)C(=O)N[C@@H](CCC(=O)O)C(=O)N[C@@H](CC(C)C)C(=O)N[C@@H](Cc1c[nH]cn1)C(=O)N[C@@H](CCCCNC(=O)COCCOCCNC(=O)COCCOCCNC(=O)CC[C@H](NC(=O)CCCCCCCCCCCCCCCCCCC(=O)O)C(=O)O)C(=O)N[C@@H](CC(C)C)C(=O)N[C@@H](C)C(=O)N[C@H](C(=O)N[C@@H](CC(C)C)C(=O)N1CCC[C@H]1C(=O)N[C@@H](CCCNC(=N)N)C(=O)N[C@H](C(=O)N[C@@H](CCC(=O)O)C(=O)N[C@H](C(=O)NCC(=O)N[C@@H](CO)C(=O)NCC(=O)N[C@@H](CO)C(=O)N1CCC[C@H]1C(N)=O)[C@@H](C)O)[C@@H](C)O)[C@@H](C)O)[C@@H](C)O)[C@@H](C)O)[C@@H](C)CC` [Compound 189], for which the EC50 in test [1] (setting [4]) was 0.00918 nM; in test [1] (hGIPR Potency, no HSA, EC50, method B, absence of HSA) it was 0.00318 nM; in test [2] (setting [6]) it was 1.21 nM; in test [2] (hAMYR3 Potency, no HSA, EC50, method B, absence of HSA), 0.0127 nM; in test [3] (setting [8]), 0.0819 nM; in test [3] (hGLP-1R Potency, no HSA, EC50, method B, absence of HSA), 0.0269 nM.
